Holding throughout (type): biochemical
Assay [1] has as its target T1, human IGF1R cytoplasmic domain (Homo sapiens, UniProt P08069).
T1 construct: The human IGF1R cytoplasmic domain was cloned; made in house; host or cells: SF21 insect cells (baculovirus)
As to the kind of experiment: IGF1R autophosphorylation inhibition, time resolved fluorescence (HTRF) assay. Conditions: 10 μM; read-out: IGF1R % inhib at 10 μM. Put shortly: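 GST-tagged human IGF1R cytoplasmic domain from SF21 cells incubated with compound in 50 mM Hepes pH 7.5, 5 mM MnCl2, 50 mM NaCl, […] ATP. Autophosphorylation detected by HTRF (Eu-K anti-phosphotyrosine, XL665 anti-GST) after EDTA/KF stop; percentage inhibition versus no-compound control.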
(In general: TR-FRET usually uses a lanthanide donor and a delayed reading to cut background.)

The target of another assay is T2, human KDR enzyme (Homo sapiens, UniProt P35968).
T2 construct: The cytoplasmic domain of the human KDR enzyme; GST; made in house; host or cells: SF21 insect cells (baculovirus)
Nature of the assay: KDR substrate (PLCγ) phosphorylation, scintillation assay. The conditions noted are these: 10 μM; read-out: KDR % inhib at 10 μM. Put shortly: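 Values are percent inhibition relative to the compound-free control, read by scintillation counting of 33P incorporation after EDTA stop. Baculovirus/SF21-expressed GST-KDR cytoplasmic domain (100 ng) acted for 1 h at 37 °C in pH 7.2 MOPS kinase buffer. The substrate was GST-PLCγ SH2-SH3 (2 μg), added with γ33P-ATP and 2 μM unlabeled ATP.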

A further assay deals with T3, human FAK (Homo sapiens, UniProt Q05397).
T3 construct: The complete cDNA of human FAK; made in house; host or cells: baculovirus expression system (vector pFastBac HTc)
As to the kind of experiment: FAK autophosphorylation inhibition, time resolved fluorescence (HTRF) assay. Conditions: for inhibition at 10 µM: 10 μM (values without asterisk), read-out: FAK % inhib at 10 μM; for inhibition at 30 µM: 30 μM (values marked *), read-out: FAK % inhib at 30* μM. Put shortly:
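Autophosphorylation was detected by europium-cryptate anti-pTyr and XL665 anti-His energy transfer, percent inhibition from the 665/620 ratio relative to no-compound wells. Enzyme: His-FAK full length, 6.6 µg/ml, incubated 1 h at 37 °C, pH 7.2, 15 µM ATP.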

T3 sequence (Q05397 whole entry): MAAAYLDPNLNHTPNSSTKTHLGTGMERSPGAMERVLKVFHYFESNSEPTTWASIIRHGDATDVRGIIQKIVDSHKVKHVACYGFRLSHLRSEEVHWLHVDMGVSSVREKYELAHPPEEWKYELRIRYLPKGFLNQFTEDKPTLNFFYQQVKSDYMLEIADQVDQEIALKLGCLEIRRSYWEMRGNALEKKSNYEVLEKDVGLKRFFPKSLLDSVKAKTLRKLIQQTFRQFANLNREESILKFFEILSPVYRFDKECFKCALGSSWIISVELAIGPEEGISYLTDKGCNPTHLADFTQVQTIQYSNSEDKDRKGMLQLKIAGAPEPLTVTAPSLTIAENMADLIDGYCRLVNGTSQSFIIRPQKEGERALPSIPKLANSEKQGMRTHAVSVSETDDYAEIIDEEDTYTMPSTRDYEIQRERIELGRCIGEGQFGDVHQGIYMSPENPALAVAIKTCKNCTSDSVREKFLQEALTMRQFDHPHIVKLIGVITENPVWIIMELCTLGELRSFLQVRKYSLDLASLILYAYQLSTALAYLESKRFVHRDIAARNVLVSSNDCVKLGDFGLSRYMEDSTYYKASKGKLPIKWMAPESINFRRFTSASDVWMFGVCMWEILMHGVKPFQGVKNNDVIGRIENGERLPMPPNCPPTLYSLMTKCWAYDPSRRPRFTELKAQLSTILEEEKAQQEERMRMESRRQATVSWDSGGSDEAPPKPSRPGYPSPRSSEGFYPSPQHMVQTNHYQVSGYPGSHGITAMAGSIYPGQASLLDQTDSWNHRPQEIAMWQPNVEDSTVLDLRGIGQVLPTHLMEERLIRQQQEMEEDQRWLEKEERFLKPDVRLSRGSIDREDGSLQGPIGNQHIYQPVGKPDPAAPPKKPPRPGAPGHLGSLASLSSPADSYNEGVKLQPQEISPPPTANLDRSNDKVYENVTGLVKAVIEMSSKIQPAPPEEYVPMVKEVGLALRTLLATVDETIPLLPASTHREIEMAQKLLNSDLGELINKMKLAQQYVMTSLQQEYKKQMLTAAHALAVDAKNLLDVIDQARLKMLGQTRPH
T2 sequence (P35968 786-1356 limits assumed): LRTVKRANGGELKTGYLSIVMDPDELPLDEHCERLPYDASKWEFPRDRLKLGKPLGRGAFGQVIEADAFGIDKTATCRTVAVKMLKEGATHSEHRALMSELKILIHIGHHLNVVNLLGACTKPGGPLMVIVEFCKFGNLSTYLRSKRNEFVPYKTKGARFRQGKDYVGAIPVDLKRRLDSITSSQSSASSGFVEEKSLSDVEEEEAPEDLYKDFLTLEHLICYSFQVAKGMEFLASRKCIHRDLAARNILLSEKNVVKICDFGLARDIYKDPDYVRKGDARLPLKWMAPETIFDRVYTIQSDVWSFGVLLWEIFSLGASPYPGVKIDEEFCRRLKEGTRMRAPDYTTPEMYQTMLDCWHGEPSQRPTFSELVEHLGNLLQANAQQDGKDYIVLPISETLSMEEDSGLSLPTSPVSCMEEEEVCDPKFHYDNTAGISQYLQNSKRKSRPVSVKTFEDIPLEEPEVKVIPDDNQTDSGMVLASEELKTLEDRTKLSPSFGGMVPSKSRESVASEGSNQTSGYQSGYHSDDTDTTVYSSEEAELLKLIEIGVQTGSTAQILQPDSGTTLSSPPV
T1 sequence (P08069 960-1367 limits assumed): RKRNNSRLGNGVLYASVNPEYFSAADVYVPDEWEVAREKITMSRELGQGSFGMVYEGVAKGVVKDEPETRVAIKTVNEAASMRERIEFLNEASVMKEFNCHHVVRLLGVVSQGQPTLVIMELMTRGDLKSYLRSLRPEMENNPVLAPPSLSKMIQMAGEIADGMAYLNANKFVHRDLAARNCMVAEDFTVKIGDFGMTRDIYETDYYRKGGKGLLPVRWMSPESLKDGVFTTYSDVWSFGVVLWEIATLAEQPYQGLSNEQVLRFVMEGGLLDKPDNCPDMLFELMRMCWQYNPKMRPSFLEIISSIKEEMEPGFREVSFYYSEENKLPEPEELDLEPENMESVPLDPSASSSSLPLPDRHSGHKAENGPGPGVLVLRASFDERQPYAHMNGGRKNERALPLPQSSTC

With `COc1cccc(S(=O)(=O)Nc2ccc3[nH]nc(-c4ccccc4)c3c2)c1` [Example 156, 3-Methoxy-N-(3-phenyl-1H-indazol-5-yl)-benzenesulfonamide], the inhibition at 10 µM in assay [1] turned out to be 68%; at human KDR enzyme, 94%; at human FAK, 56%.

Consider `CNc1n[nH]c2ccc(NS(=O)(=O)c3ccccc3S(C)(=O)=O)cc12` [Example 37, N-(3-Methylamino-1H-indazol-5-yl)-2-methylsulfonylbenzenesulfonamide], for which the results for the inhibition at 10 µM (in assay [1]; on human KDR enzyme; at human FAK) were 51%, 8% and 67%, respectively.

As to `CS(=O)(=O)c1ccc(F)cc1S(=O)(=O)Nc1ccc2[nH]nc(-c3ccccc3)c2c1` [Example 93, 5-Fluoro-2-methylsulfonyl-N-(3-phenyl-1H-indazol-5-yl)-benzenesulfonamide], the inhibition at 10 µM in assay [1] was determined as 87%; on human KDR enzyme it was 83%; on human FAK it was 94%.

Regarding `CS(=O)(=O)c1ccccc1S(=O)(=O)Nc1ccc2[nH]nc(-c3ccc(N)cc3)c2c1` [Example 70, N-[3-(4-Aminophenyl)-1H-indazol-5-yl]-2-methylsulfonylbenzenesulfonamide], the values for the inhibition at 10 µM (in assay [1]; on human KDR enzyme; at human FAK) were 85%, 71% and 99%, respectively.

As for `Nc1n[nH]c2ccc(NS(=O)(=O)c3cccc(F)c3)cc12` [Example 26, N-(3-Amino-1H-indazol-5-yl)-3-fluorobenzenesulfonamide], the inhibition at 10 µM is 34% in assay [1], 24% on human KDR enzyme and 96% at human FAK.

As for `CS(=O)(=O)c1ccccc1S(=O)(=O)Nc1ccc2[nH]nc(-c3cccc(N)c3)c2c1` [Example 62, N-[3-(3-Aminophenyl)-1H-indazol-5-yl]-2-methylsulfonylbenzenesulfonamide], the figures for the inhibition at 10 µM (in assay [1]; on human KDR enzyme; at human FAK) were 88%, 74% and 99%, respectively.

On to `CS(=O)(=O)c1ccccc1S(=O)(=O)Nc1ccc2[nH]nc(-c3cc4ccccc4[nH]3)c2c1` [Example 61, N-[3-(1H-Indol-2-yl)-1H-indazol-5-yl]-2-methylsulfonylbenzenesulfonamide], for which the inhibition at 10 µM in assay [1] was 99%; on human KDR enzyme it was 98%; at human FAK it was 99%.

For the compound `O=S(=O)(Nc1ccc2[nH]nc(-c3ccccc3)c2c1)c1cccs1` [Example 110, N-(3-Phenyl-1H-indazol-5-yl)-thiophene-2-sulfonamide], the inhibition at 10 µM was found to be 80% in assay [1], 91% on human KDR enzyme and 66% at human FAK.

For the compound `CS(=O)(=O)c1ccccc1S(=O)(=O)Nc1ccc2[nH]nc(/C=C/c3ccc(F)cc3)c2c1` [Example 74, N-{3-[(E)-2-(4-Fluorophenyl)vinyl]-1H-indazol-5-yl}-2-methylsulfonylbenzenesulfonamide], the figures for the inhibition at 10 µM (in assay [1]; on human KDR enzyme; on human FAK) were 95%, 95% and 99%, respectively.

Take `O=S(=O)(Nc1ccc2[nH]nc(-c3ccccc3)c2c1)c1ccc(F)c(F)c1` [Example 152, 3,4-Difluoro-N-(3-phenyl-1H-indazol-5-yl)-benzenesulfonamide]: the inhibition at 10 µM in assay [1] came to 67%; at human KDR enzyme it was 93%; on human FAK it was 71%.

In the case of `O=S(=O)(Nc1ccc2[nH]nc(Cl)c2c1)c1cccc(F)c1` [Example 3, N-(3-Chloro-1H-indazol-5-yl)-3-fluorobenzenesulfonamide], the inhibition at 10 µM at human KDR enzyme is 22%. In addition, at human FAK, the inhibition at 30 µM is 71%.

As to `CS(=O)(=O)c1ccccc1S(=O)(=O)Nc1ccc2[nH]nc(N)c2c1` [Example 39, N-(3-Amino-1H-indazol-5-yl)-2-methylsulfonylbenzenesulfonamide], the inhibition at 10 µM came to 72% in assay [1], 20% at human KDR enzyme and 96% on human FAK.

With `O=S(=O)(Nc1ccc2[nH]nc(-c3ccccc3)c2c1)c1ccccc1F` [Example 134, 2-Fluoro-N-(3-phenyl-1H-indazol-5-yl)-benzenesulfonamide], the inhibition at 10 µM was determined as 81% in assay [1], 90% at human KDR enzyme and 67% at human FAK.

`Nc1n[nH]c2ccc(NS(=O)(=O)c3cc(F)cc(F)c3)cc12` [Example 42, N-(3-Amino-1H-indazol-5-yl)-3,5-difluorobenzenesulfonamide]: the inhibition at 10 µM in assay [1] was determined as 0%; at human KDR enzyme, 25%; at human FAK, 100%.

In the case of `COC(=O)/C=C/c1n[nH]c2ccc(NS(=O)(=O)c3ccccc3S(C)(=O)=O)cc12` [Example 79, Methyl (E)-3-[5(2-methylsulfonylbenzenesulfonylamino)-1H-indazol-3-yl]-acrylate], the inhibition at 10 µM in assay [1] turned out to be 37%; at human KDR enzyme it was 50%; on human FAK it was 98%.

With `CS(=O)(=O)c1ccccc1S(=O)(=O)Nc1ccc2[nH]nc(-c3cccc(C#N)c3)c2c1` [Example 71, N-[3-(3-Cyanophenyl)-1H-indazol-5-yl]-2-methylsulfonylbenzenesulfonamide], the figures for the inhibition at 10 µM (in assay [1]; at human KDR enzyme; on human FAK) were 90%, 83% and 97%, respectively.

Turning to `CS(=O)(=O)c1ccccc1S(=O)(=O)Nc1ccc2[nH]nc(C#Cc3ccccc3)c2c1` [Example 89, 2-Methylsulfonyl-N-(3-phenylethynyl-1H-indazol-5-yl)-benzenesulfonamide], the figures for the inhibition at 10 µM (in assay [1]; on human KDR enzyme; on human FAK) were 90%, 85% and 92%, respectively.

On to `CS(=O)(=O)c1ccccc1S(=O)(=O)Nc1ccc2[nH]nc(-c3ccccc3)c2c1` [Example 7, 2-Methylsulfonyl-N-(3-phenyl-1H-indazol-5-yl)benzenesulfonamide], for which the results for the inhibition at 10 µM at human KDR enzyme and on human FAK were 70% and 89%, respectively.

For `COC(=O)c1cccc(-c2n[nH]c3ccc(NS(=O)(=O)c4ccccc4S(C)(=O)=O)cc23)c1` [Example 55, Methyl 3-[5-(2-methylsulfonylbenzenesulfonamino)-1H-indazol-3-yl]benzoate], the inhibition at 10 µM is 64% in assay [1], 51% at human KDR enzyme and 98% at human FAK.

As to `Cc1cccc(S(=O)(=O)Nc2ccc3[nH]nc(-c4ccccc4)c3c2)c1` [Example 138, 3-Methyl-N-(3-phenyl-1H-indazol-5-yl)-benzenesulfonamide], the results for the inhibition at 10 µM (in assay [1]; on human KDR enzyme; at human FAK) were 72%, 92% and 47%, respectively.

Regarding `O=S(=O)(Nc1ccc2[nH]nc(-c3ccccc3)c2c1)c1ccccc1C(F)(F)F` [Example 109, N-(3-Phenyl-1H-indazol-5-yl)-2-trifluoromethylbenzene-sulfonamide], the figures for the inhibition at 10 µM (in assay [1]; at human KDR enzyme; on human FAK) were 81%, 91% and 61%, respectively.

For the compound `O=S(=O)(Nc1ccc2[nH]nc(-c3ccccc3)c2c1)c1ccc(Cl)s1` [Example 135, 5-Chloro-N-(3-phenyl-1H-indazol-5-yl)thiophene-2-sulfonamide], the values for the inhibition at 10 µM (in assay [1]; at human KDR enzyme; at human FAK) were 65%, 91% and 50%, respectively.

Turning to `CS(=O)(=O)c1ccccc1S(=O)(=O)Nc1ccc2[nH]nc(Cl)c2c1` [Example 1, N-(3-Chloro-1H-indazol-5-yl)-2-methylsulfonylbenzenesulfonamide], at human KDR enzyme, the inhibition at 10 µM is 7%. Moreover, at human FAK, the inhibition at 30 µM is 70%.

Consider `Cc1n[nH]c2ccc(NS(=O)(=O)c3cccc(F)c3)cc12` [Example 9, 3-Fluoro-N-(3-methyl-1H-indazol-5-yl)benzenesulfonamide], for which, on human KDR enzyme, the inhibition at 10 µM is 18%. The inhibition at 30 µM on human FAK was 68%.

Regarding `Cc1n[nH]c2ccc(NS(=O)(=O)c3ccccc3S(C)(=O)=O)cc12` [Example 10, 2-Methylsulfonyl-N-(3-methyl-1H-indazol-5-yl)benzenesulfonamide], the inhibition at 10 µM on human KDR enzyme was 20%. Besides, the inhibition at 30 µM at human FAK worked out at 66%.

As to `O=S(=O)(Nc1ccc2[nH]nc(-c3ccccc3)c2c1)c1cccc(F)c1` [Example 6, 3-Fluoro-N-(3-phenyl-1H-indazol-5-yl)benzenesulfonamide], the inhibition at 10 µM at human KDR enzyme turned out to be 85%; at human FAK, 82%.

Regarding `CS(=O)(=O)c1ccccc1S(=O)(=O)Nc1ccc2[nH]ncc2c1` [Example 13, 2-Methylsulfonyl-N-(1H-indazol-5-yl)benzenesulfonamide], the inhibition at 10 µM at human KDR enzyme came out at 0%. Besides, at human FAK, the inhibition at 30 µM was 83%.

Turning to `O=S(=O)(Nc1ccc2[nH]nc(-c3ccccc3)c2c1)c1ccc(Cl)c(Cl)c1` [Example 8, 3,4-Dichloro-N-(3-phenyl-1H-indazol-5-yl)benzenesulfonamide], on human KDR enzyme, the inhibition at 10 µM came out at 81%. Also, the inhibition at 30 µM on human FAK came to 76%.

The values are drawn from patent US6858638B2, “Substituted indazoles, compositions containing them, method of production and use” (Aventis Pharma S.A., priority 2002, dated 2005).
